# Source: PMC6271697, “Anticancer Activities of Polyynes from the Root Bark of Oplopanax horridus and Their Acetylated Derivatives” (Molecules, 2014)
# Key:
# Type in all cases: cell-based, human
# MDA-MB-231 cells [1] = test: JC-1 mitochondrial membrane potential; details: high concentration (OHR-1 15 μM, OHR-2 5 μM, OHR-3 10 μM, OHR-5 15 μM), 24 h
# Protocol: The MDA-MB-231 cells were treated with OHR-1, -2, -3 and -5 for 24 h in a humidified atmosphere (37 °C with 5% CO2). The cells were collected and responded in 0.5 mL culture medium with JC-1 dye (1 μg/mL) for 20 min at 37 °C in dark. Fluorescence was monitored by both flow cytometry (BD Biosciences, San Jose, CA, USA) and fluorescence microscope. The Δψm were indicated by the rato of […] fluorescence intensity. The data were expressed as ratio of Δψm between treatments and control cells (solvent vehicle set at 100%).
# A549 cells = test: MTT cell viability assay, A549 cells; details: MTT, 24 h incubation; read-out: IC50 A549
# Protocol: (§1) The human breast cancer cell lines MCF-7, MDA-MB-231, human hepatocellular liver cell line HepG2 and human lung carcinoma epithelial cells A549 were purchased from American Type Culture Collection (ATCC, Manassas, VA, USA). Normal human hepatic LO2 cells were obtained from the Institute of Cell Biology, Academic Sinica (Shanghai, China). The cells were grown in an atmosphere of 5% CO2 at 37 °C in RPMI 1640 medium supplemented with 10% fetal bovine serum, 100 U/mL penicillin and […] streptomycin.
# (§2) The viability of cells was measured by a colorimetric MTT assay. Briefly, 1 × 10^4 cells/well in 96-well microplates were exposed to different concentration of polyynes and their acetylated derivatives respectively for 24 h incubation, following addition of 20 μL MTT solution (4 mg/mL) to each well for another 4 h incubation at 37 °C. Finally, the medium was removed and replaced with 100 μL dimethyl sulfoxide which was added to dissolve the dye crystal presented in cells. The absorbance was recorded at 570 nm using a microplate reader (1420 Multilabel counter victor^3, Perkin-Elmer, Waltham, MA, USA). The results were expressed as ratio of absorbance between treatments and control cells (solvent vehicle set at 100%). Four replicate wells were tested per assay which was repeated three times.
# MDA-MB-231 cells [2] = test: MTT cell viability assay, MDA-MB-231 cells; details: MTT, 24 h incubation; read-out: IC50 MDA-MB-231
# Protocol: as §1, §2
# MDA-MB-231 cells [3] = test: Hoechst 33342 staining for apoptosis; details: OHR-1 15 μM, OHR-2 5 μM, OHR-3 10 μM, OHR-5 15 μM; 12 h
# Protocol: MDA-MB-231 cells were seeded in the flat-bottomed 6-well plates and treated with OHR-1, -2, -3 and -5. Cells treated with solvent vehicle served as controls. In 12 h after treatment, cells were fixed in 4% polyoxymethylene solution for 30 min and then washed with PBS. The fixed cells were incubated with Hoechst 33342 for 15 min at room temperature in the dark and then washed with PBS twice, which were finally observed under a fluorescence microscope (Convert Fluorescence Microsope Axiovert 200, HAL 100, HBO 100, Carl Zeiss MicroImaging Co., Ltd., Oberkochen, Germany) at a magnification of ×400.
# HepG2 cells = test: MTT cell viability assay, HepG2 cells; details: MTT, 24 h incubation; read-out: IC50 HepG2
# Protocol: as §1, §2
# MDA-MB-231 cells [4] = test: Cell cycle analysis by PI staining and flow cytometry; details: 24 h
# Protocol: Cells were seeded in 6-well tissue culture plates and treated with DMSO control or different concentration of OHR-1, -2, -3 and -5 for 24 h. Then, the cells were harvested and fixed gently with cold 70% ethanol at −20 °C overnight. Finally, the cells were washed with PBS and re-suspended in 300 μL of propidium iodide (PI) stain solution (20 μg/mL PI and 8 μg/mL DNase-free RNase) for 20 min at room temperature in the dark. The cells were analyzed with a flow cytometry and Mod Fit LT 3.0 software (Variety Software House, Topsham, ME, USA). For each measurement, at least 20,000 cells were counted.
# MCF-7 cells = test: MTT cell viability assay, MCF-7 cells; details: MTT, 24 h incubation; read-out: IC50 MCF-7
# Protocol: as §1, §2
# LO2 cells = test: MTT cell viability assay, normal hepatic LO2 cells; details: normal human hepatic cells, MTT, 24 h incubation; read-out: IC50 LO2
# Protocol: as §1, §2
substance,measurement,setting,value
"(3S,8S,Z)-3-Hydroxyheptadeca-1,9-dien-4,6-diyn-8-yl acetate [OHR-5]",effect on mitochondrial membrane potential Δψm (JC-1),MDA-MB-231 cells [1],decreasing the Δψm
same,IC50,A549 cells,30.1 ± 4.4 µM
same,IC50,MDA-MB-231 cells [2],13.9 ± 5.8 µM
same,induction of apoptosis (Hoechst staining),MDA-MB-231 cells [3],induce obvious apoptosis
same,IC50,HepG2 cells,43.7 ± 6.6 µM
same,G2/M arrest rate at low concentration,"MDA-MB-231 cells [4]; OHR-1 7.5 μM, OHR-2 2.5 μM, OHR-3 5 μM, OHR-5 7.5 μM",33.2% ± 4.6%
same,G2/M arrest rate at high concentration,"MDA-MB-231 cells [4]; OHR-1 15 μM, OHR-2 5 μM, OHR-3 10 μM, OHR-5 15 μM",38.0% ± 1.7%
same,IC50,MCF-7 cells,30.6 ± 3.1 µM
same,IC50,LO2 cells,31.1 ± 1.8 µM
